According to patent US9278940B2, “Cyclic amines as bromodomain inhibitors” (Zenith Epigenetics Corp., priority 2012, dated 2016):
Counter-ions that a name gives are not always drawn.

Key:
c-myc = test: Inhibition of c-myc expression (mRNA, real-time PCR) in MV4-11 cells; format: cell-based; design: key: Active: Compounds with an IC50 value less than 30 μM were deemed to be active.; Not Active: Compounds with an IC50 value less than 30 μM were deemed to be active; conditions: Human AML MV4-11 cells, 3 hours
Summary of the method: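 MV4-11 cells (2.5×10^4) exposed to compound or 0.1% DMSO for 3 h at 37° C, then lysed for mRNA isolation. c-myc and cyclophilin cDNAs co-amplified by duplex RT real-time PCR. IC50 from dose-response curve.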

MV4-11 cells = test: In vivo efficacy in acute myeloid leukemia xenograft model using MV4-11 cells; design: species or system mouse; conditions: athymic nude mice, MV4-11 xenograft, oral 75 mg/kg b.i.d and 120 mg/kg b.i.d, tumor growth inhibition vs vehicle
Experimental: MV4-11 cells (ATCC) were grown under standard cell culture conditions and (NCr) nu/nu fisol strain of female mice age 6-7 weeks were injected 5e^6 cells/animal in 100 μl PBS+100 μl Matrigel in lower left abdominal flank. Approximately by day 18 after MV4-11 cells injection, mice were randomized based on tumor volume (L×W×H)/2) of average ^˜120 mm^3. Mice were dosed orally with compound at 75 mg/kg b.i.d and 120 mg/kg b.i.d in EA006 formulation at 10 mL/kg body weight dose volume. Tumor measurements were taken with electronic micro caliper and body weights measured on alternate days beginning from dosing period. The average tumor volumes, percent Tumor Growth Inhibition (TGI) and % change in body weights were compared relative to Vehicle control animals. The means, statistical analysis and the comparison between groups were calculated using student's t-test in Excel.

hApoA-1 mRNA = test: Up-regulation of hApoA-1 mRNA transcription in Huh7 cells; format: cell-based, human; design: key: Active: Compounds with an EC170 value less than 30 μM are deemed to be active.; Not Active: Compounds with an EC170 value less than 30 μM are deemed to be active; conditions: 48 hrs treatment, ApoA-I mRNA
Summary of the method: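 Huh7 cells plated 24 h before compound, then treated 48 h; mRNA isolated from lysates and ApoA-I quantified by one-step real-time PCR. Fold induction derived from Ct values relative to the matching DMSO control; EC170 reported as activity measure.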

[1] = In vivo efficacy in rat collagen induced arthritis; conditions: female Lewis rats, collagen Day 1 and 7, dosed Day 11 to Day 17
Experimental: Rat collagen-induced arthritis is an experimental model of polyarthritis that has been widely used for preclinical testing of numerous anti-arthritic agents. Following administration of collagen, this model establishes a measurable polyarticular inflammation, marked cartilage destruction in association with pannus formation and mild to moderate bone resorption and periosteal bone proliferation. In this model, collagen was administered to female Lewis strain of rats on Day 1 and 7 of study and dosed with compounds from Day 11 to Day 17. Test compounds were evaluated to assess the potential to inhibit the inflammation (including paw swelling), cartilage destruction and bone resorption in arthritic rats, using a model in which the treatment is administered after the disease has been established.

Human AML MV-4-11 cells = test: Inhibition of cell proliferation in MV4-11 cells; format: cell-based; design: key: Active: Compounds with an IC50 value less than 30 μM are deemed to be active.; Not Active: Compounds with an IC50 value less than 30 μM are deemed to be active; conditions: 72 hours
Summary of the method: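 Exponentially growing MV-4-11 cells were treated immediately with two-fold compound dilutions from 30 µM to 0.2 µM in triplicate for 72 h at 37 °C. Viability was read by MTS (CellTiter Aqueous One) absorbance at 490 nm after 3-4 h; % proliferation vs DMSO gave IC50.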

c-myc activity (IC50 < 30 μM) (c-myc): Active | cell proliferation activity (IC50 < 30 μM) (Human AML MV-4-11 cells): Active
SMILES: COc1cc(OC)c2c(=O)[nH]c(-c3cccc(N4CCN(C(C)C)CC4)n3)nc2c1 [Example 17, 2-(6-(4-Isopropylpiperazin-1-yl)pyridin-2-yl)-5,7-dimethoxyquinazolin-4(3H)-one Hydrochloride]
In vivo activity (MV4-11 cells): Active | ApoA-1 activity (EC170 < 30 μM) (hApoA-1 mRNA): Active | In vivo activity [1]: Active
